Source: patent publication US7968554B2, “Pyrazolo[3,4-d]pyrimidine derivatives” (Hoffman-La Roche Inc., priority 2007, dated 2011)

Target: T1, b-Raf wild-type (Homo sapiens, UniProt P15056)
T1 construct: recombinant human b-Raf residues 416-end with N-terminal GST-tag; purchased Upstate 14-530M; host or cells: baculovirus, Sf21 insect cells
Experiment: b-Raf wild-type HTRF assay with 6H-MEK as substrate (dose response)
Type: biochemical
Details: kinase enzyme inhibition, 6H-MEK substrate, read-out: bRaf wild-type IC50
Protocol: Kinase Enzyme Inhibition Assay (IC50)
b-Raf Wild-Type HTRF Assay With 6H-MEK as Substrate (Dose Response)
The assay utilizes 6H-MEK as the substrate. Upon b-Raf WT phosphorylation, phosphorylated 6H-MEK is detected with rabbit anti-phospho-MEK1/2, Eu-labeled anti-rabbit, and APC-labeled anti-6H antibodies.
Reagents and Instruments:
• Enzyme: recombinant human b-Raf residues 416-end with N-terminal GST-tag from Upstate; (expressed by baculovirus in Sf21 insect cells), 0.26 mg/mL (3.87 μM assuming a molecular weight of 67.2 kD) Cat. #14-530M, Lot #25502AU, stored at −80° C. • Substrate: WT full-length 6H-MEK, 4.94 mg/mL (154.4 μM assuming a MW of 32 kD) stored at −15° C. • Antibodies: Rabbit (α-P-(Ser 217/221)-MEK-1/2 Ab (from Cell Signaling, Cat. #9121B, Lot 14); Eu-(α-rabbit IgG (from Wallac, Cat. #AD0083, Lot 318663, 710 ug/mL, 4.4 μM); (α-6H-SureLight-APC (from Martek, Cat. #AD0059H, Lot E012AB01, 3.03 μM). • Reader: Envision from PerkinElmer, HTRF reading mode with 412 mirror • Assay Plate: Matrix all-black polypropylene plates (Cat. #4344) • Others: Weidman 384 polypropylene plates (REMP) for compound plate. Assay Procedure: • (1) Prepare Kinase Assay Buffer (KAB): 50 mM HEPES (HyClone) pH7, 10 mM MgCl2, 1 mM DTT, 0.1 mM […], and 0.3 mg/ml BSA. • (2) Prepare 6H-MEK (150 nM) in KAB. Add 12 μL/well to the assay plate. • (3) Prepare ATP (66 μM) in KAB. • (4) Dilute compounds to 2.4 mM and any positive controls to 480 μM in DMSO. Perform 10-point 3× dilution in DMSO. Withdraw 2.5 μL/well of DMSO solution and add to 27.5 μL/well ATP solution in (3). • (5) Mix, then add 6 μL/well of solution in (4) to the assay plate for a DMSO concentration of 2.1% during MEK phosphorylation. • (6) Prepare b-Raf WT (100 μM) in KAB. • (7) Add 6 μL/well of KAB in columns 1-2 and 6 μL/well of b-Raf WT in columns 3-24. • (8) Incubate at 37° C. for 30 min. • (9) Prepare rabbit (α-P-(Ser 217/221 )-MEK-1/2 Ab (1:200 from stock) in AB1: 50 mM HEPES pH7, 0.2 mg/ml BSA, and 43 mM EDTA. • (10) To stop reaction, add 6 μL/well of solution from (9) to the assay plate and incubate at 37° C. for 30 min. • (11) Prepare Eu-(α-rabbit IgG (9 nM) and (α-6H-SureLight-APC (180 nM) in AB2: 50 mM HEPES pH7 and 0.2 mg/mL BSA. • (12) Add 6 μL/well of solution from (11) to the assay plate. • (13) For determining the spectrum cross talk factor, prepare 2 samples following steps (1) to (10). For the blank sample, add 6 μL/well of AB2. For the cross talk factor sample, add 6 μL/well of Eu-anti rabbit IgG (9 nM). • (14) Incubate at room temperature for 1.5 hours. • (15) Read HTRF signals at 615 nm and 665 nm on the Envision. Normalize HTRF signals after spectrum cross-talk correction. b-Raf V600E Mutant HTRF Assay With 6H-MEK as Substrate (Dose Response) Assay Principle: […]

T1 sequence (P15056 416-766 limits assumed): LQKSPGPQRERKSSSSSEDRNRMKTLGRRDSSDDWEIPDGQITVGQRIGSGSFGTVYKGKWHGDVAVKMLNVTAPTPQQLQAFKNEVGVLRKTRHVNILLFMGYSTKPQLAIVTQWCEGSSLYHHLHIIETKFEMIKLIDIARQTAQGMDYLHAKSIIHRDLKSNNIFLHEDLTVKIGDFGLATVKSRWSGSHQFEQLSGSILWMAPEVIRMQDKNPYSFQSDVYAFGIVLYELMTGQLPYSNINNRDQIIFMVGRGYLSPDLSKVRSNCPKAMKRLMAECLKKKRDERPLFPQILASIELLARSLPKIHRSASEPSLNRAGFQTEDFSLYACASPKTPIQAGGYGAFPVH

Row | SMILES | IC50 [µM]
1 | Cc1nnc(-c2ccc(C)c(OCc3nn(C)c4ncnc(N)c34)c2)o1 [Example 21, 1-Methyl-3-[2-methyl-5-(5-methyl-[1,3,4]oxadiazol-2-yl)-phenoxymethyl]-1H-pyrazolo[3,4-d]pyrimidin-4-ylamine] | > 10
2 | Cc1noc(-c2ccc(C)c(OCc3nn(C)c4ncnc(N)c34)c2)n1 [Example 13, 4-Amino-1-1-methyl-3-[2-methyl-5-(3-methyl-[1,2,4]oxadiazol-5-yl)-phenoxymethyl]-1H-pyrazolo[3,4-d]pyrimidine] | > 10
3 | Cn1nc(COc2cccc(OCc3ccccc3)c2)c2c(N)ncnc21 [Example 7, 3-(3-Benzyloxy-phenoxymethyl)-1-methyl-1H-pyrazolo[3,4-d]pyrimidin-4-ylamine] | > 10
4 | Cc1ccc(C(=O)Nc2ccc(Cl)cc2)cc1OCc1nn(C)c2ncnc(N)c12 [Example 17, 3-(4-Amino-1-methyl-1H-pyrazolo[3,4-d]pyrimidin-3-ylmethoxy)-N-(4-chloro-phenyl)-4-methyl-benzamide] | < 10

Other lines, results leading:

Row | IC50 [µM] | SMILES
5 | < 10 | Cc1ccc(OCc2ccc(Cl)cc2)cc1OCc1nn(C)c2ncnc(N)c12 [Example 19, 3-[5-(4-Chloro-benzyloxy)-2-methyl-phenoxymethyl]-1-methyl-1H-pyrazolo[3,4-d]pyrimidin-4-ylamine]
6 | < 10 | Cc1ccc(NC(=O)c2ccc(NCCO)c(Cl)c2)cc1OCc1nn(C)c2ncnc(N)c12 [Example 9, N-[3-(4-Amino-1-methyl-1H-pyrazolo[3,4-d]pyrimidin-3-ylmethoxy)-4-methyl-phenyl]-3-chloro-4-(2-hydroxy-ethylamino)-benzamide]
7 | < 10 | Cc1ccc(NC(=O)c2cccc(Cl)c2)cc1OCc1nn(C)c2ncnc(N)c12 [Example 11, N-[3-(4-Amino-1-methyl-1H-pyrazolo[3,4-d]pyrimidin-3-ylmethoxy)-4-methyl-phenyl]-3-chloro-benzamide]
8 | < 10 | Cc1ccc(OCc2ccccc2)cc1OCc1nn(C)c2ncnc(N)c12 [Example 15, 3-(5-Benzyloxy-2-methyl-phenoxymethyl)-1-methyl-1H-pyrazolo[3,4-d]pyrimidin-4-ylamine]
